Assay in all cases: inhibition of tumour cell growth, NCI panel, 48 h
Experiment [1] deals with 786-0 renal.
Experiment [2] relates to ACHN renal.
Experiment [3] deals with HCT-15 colon.
The test system of experiment [4] is HOP-92 NSCLC.
The subject of experiment [5] is HT29 colon.
For experiment [6], the system named is OVCAR-5 ovarian.
The subject of experiment [7] is PC-3 prostate.
Experiment [8] relates to RPMI-8226 leukemia.
Experiment [9] has as its system RXF 393 renal.
Experiment [10] relates to SR leukemia.

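In this assay, cells in 96-well plates receive the compound at five concentrations for 48 hours. Endpoints are linearly interpolated between the surrounding concentrations. GI50 is the concentration that inhibits growth by half. TGI is the concentration that stops growth completely.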

Consider 22 molecules from PubChem BioAssay (NCI).

For the molecule `COC(=O)CCCCCCCCC(=O)c1c(C)[nH]c(/C=C2\N=C(c3ccc[nH]3)C=C2OC)c1C`, the GI50 is 8.53 µM in [1]; 20.6 µM in experiment [2]; 22.1 µM in experiment [3]; 4.73 µM in experiment [4]; 32.4 µM in experiment [5]; above 28.7 µM in experiment [6]. In addition, the GI50 is 4.88 µM in [7], 6.38 µM in experiment [8] and 31.3 µM in [9]. Also, the TGI in experiment [1] is above 43.4 µM; in experiment [2] it was above 72.7 µM; in experiment [3], above 57.7 µM; in experiment [4], above 30.5 µM; in experiment [5], above 100 µM; in experiment [6] it was above 100 µM. Moreover, the figures for the TGI in [7], in [8] and in experiment [9] were above 100 µM, above 30.6 µM and above 100 µM, respectively.
Take `CCOC(=O)CCC(NC(=O)c1ccc(Nc2nc3cc(N)cc(N)c3nc2-c2ccccc2)cc1)C(=O)OCC` (centres undefined): the GI50 is above 42.3 µM in experiment [1]; above 35.9 µM in [2]; above 48.1 µM in experiment [3]; 10.8 µM in experiment [4]; 83.6 µM in experiment [5]; 57.1 µM in experiment [6]. Also, the GI50 in experiment [7] was 20.5 µM; in experiment [8], 6.43 µM; in [9], 43.4 µM. Further, the TGI in [1] is above 60.9 µM; in experiment [2], above 68.6 µM; in experiment [3], above 100 µM; in experiment [4], 29.7 µM; in experiment [5] it was above 100 µM; in experiment [6] it was above 93.2 µM. Moreover, the TGI in experiment [7] is 89 µM; in experiment [8], above 59.3 µM; in experiment [9], above 92.6 µM.
Regarding `CCC1C(=O)OCc2c1cc1n(c2=O)Cc2ccccc2-1` (centres undefined), the TGI in [1], in experiment [2], in [3], in experiment [4], in experiment [5] and in experiment [6] was above 100 µM in each case. The TGI in experiment [8], in experiment [9] and in experiment [10] was above 100 µM throughout.
With `O=C(Nc1ccc(Oc2cccc(Cl)c2)c(Cl)c1)c1cccnc1`, the GI50 in [1] was 2.69 µM; in [2], 4.06 µM; in experiment [3], 0.343 µM; in experiment [4], 2.73 µM; in [5], 0.823 µM; in [6], 5.5 µM. In addition, the values for the GI50 in experiment [8], in [9] and in experiment [10] were 2 µM, 0.927 µM and 0.395 µM, respectively. For the same molecule, the TGI in experiment [1] is 11.6 µM; in [2] it was above 50 µM; in experiment [3], above 50 µM; in experiment [4], 22.1 µM; in experiment [5], 6.42 µM; in experiment [6] it was above 50 µM. The TGI in experiment [8] was above 50 µM; in experiment [9] it was 4.65 µM; in [10], above 50 µM.
For the molecule `Cc1cccc2c1C(=O)OC2(c1cccc2ccccc12)c1cccc2ccccc12`, the TGI was above 100 µM in experiment [1]; above 100 µM in experiment [2]; above 100 µM in experiment [3]; above 100 µM in [5]; above 100 µM in experiment [6]; 94.3 µM in experiment [9]. In addition, the TGI in experiment [10] was above 100 µM.
Take `CCC[CH2][Sn]1([CH2]CCC)[O]N=Cc2ccccc2[O]1`: the GI50 in experiment [1] was 0.608 µM; in experiment [2], 1.18 µM; in [3], 0.808 µM; in experiment [4], 1.22 µM; in experiment [5], 1.75 µM; in experiment [6] it was 1.69 µM. Further, the values for the GI50 in experiment [8], in experiment [9] and in experiment [10] were 0.231 µM, 0.224 µM and 0.342 µM, respectively. Also, the TGI turned out to be 1.89 µM in [1]; 2.43 µM in experiment [2]; 2.04 µM in experiment [3]; 2.49 µM in experiment [4]; 3.36 µM in [5]; 3.08 µM in experiment [6]. The TGI in experiment [8] was determined as 0.848 µM; in experiment [9], 1.05 µM; in [10] it was 2.75 µM.
For `N#CC(N)(C(=O)C(=O)NCCCNC(=O)C(=O)C(N)(C#N)c1ccc(Cl)cc1)c1ccc(Cl)cc1` (centres undefined), the TGI in experiment [1], in [2], in [3], in [4], in [5] and in [6] was above 100 µM in each case. For the same molecule, the TGI in experiment [8], in [9] and in experiment [10] was above 100 µM in each case.
For `CC(C)=CCCC1(C)C=Cc2c(ccc3c2[nH]c2cc(O)c(C)cc23)O1` (centres undefined), the GI50 in [1] was 4.27 µM; in experiment [2], 6.83 µM; in experiment [3], 4.96 µM; in [4] it was 4.22 µM; in experiment [5], 4.9 µM; in experiment [9], 5.27 µM. Further, in [10], the GI50 is 5.55 µM. Besides, the TGI was 7.87 µM in experiment [1]; 20.2 µM in experiment [2]; 10.8 µM in experiment [3]; 10.2 µM in experiment [4]; 10.5 µM in [5]; above 25 µM in [6]. Besides, the TGI in experiment [8] amounted to 18.9 µM; in experiment [9] it was 10.1 µM; in experiment [10], 14.7 µM.
As to `Nc1ccc(C(=O)N/C(=C\c2ccc3c(c2)OCO3)c2nc3ccc4c(c3[nH]2)C(=O)c2ccccc2C4=O)cc1`, the TGI in experiment [1] is 72.2 µM; in [2], 64.9 µM; in experiment [3], above 100 µM; in [4] it was 95.7 µM; in [5], above 100 µM; in experiment [6], above 100 µM. For the same molecule, the values for the TGI in experiment [8] and in experiment [9] were above 100 µM and 42.4 µM, respectively.
Regarding `CC(C)S(=O)(=O)ON1C(=O)c2ccc([N+](=O)[O-])cc2C1=O`, the TGI in [1], in experiment [2], in [3], in [4], in experiment [5] and in experiment [6] was above 100 µM in each case. The TGI in experiment [9] and in experiment [10] was above 100 µM throughout.
With `COc1ccc(C(=O)C(CN(C)C)c2ccccc2)cc1` (centres undefined), the GI50 in [1] is 1.62 µM; in experiment [2] it was 2.11 µM; in experiment [3], 1.81 µM; in experiment [5] it was 3.8 µM; in experiment [6], 3.82 µM; in [7], 4.6 µM. Further, the values for the GI50 in experiment [8] and in experiment [9] were 1.88 µM and 1.32 µM, respectively. Further, the TGI is 3.01 µM in [1]; 4.95 µM in experiment [2]; 4.73 µM in experiment [3]; 21.4 µM in experiment [5]; 10 µM in experiment [6]; 17.4 µM in experiment [7]. Moreover, the TGI in [8] is above 100 µM; in experiment [9] it was 3.1 µM.
For `CC(C)C(NCc1c2ccccc2nc2ccccc12)C(=O)O` (centres undefined), the TGI was above 100 µM in experiment [1]; above 100 µM in experiment [2]; above 100 µM in experiment [3]; 61.9 µM in experiment [4]; above 100 µM in [5]; above 100 µM in experiment [6]. Moreover, the TGI in [8], in experiment [9] and in experiment [10] was above 100 µM each time.
In the case of `CCN(CC)Cc1cc(Nc2c3ccc(Cl)cc3nc3c(C)cccc23)ccc1O`, the GI50 in experiment [1] is 1.37 µM; in experiment [2], 1.04 µM; in [3] it was 1.15 µM; in experiment [5], 0.888 µM; in experiment [6], 2.1 µM; in experiment [7], 1.55 µM. The GI50 in [9] was 1.3 µM. Further, the TGI in experiment [1] was determined as 2.67 µM; in experiment [2], 2.24 µM; in experiment [3], 2.87 µM; in [5], 2.42 µM; in [6], 4.86 µM; in [7], 3.1 µM. In [9], this molecule returned a TGI of 2.63 µM.
Consider `O=C1NC(=Nc2ccccc2Cl)SC1C(=O)Nc1ccc([N+](=O)[O-])cc1[N+](=O)[O-]` (centres undefined), for which the TGI in [1], in experiment [2], in experiment [3], in experiment [4], in [5] and in [6] was above 100 µM in each case. Further, the TGI in experiment [8], in experiment [9] and in experiment [10] was above 100 µM each time.
With `Cc1nc(=O)n2c(c1C(=O)Nc1ccc(Cl)cc1)NCCC2`, the TGI in experiment [1], in experiment [2], in [3], in experiment [4], in [5] and in experiment [6] was above 100 µM throughout. The TGI in [8], in experiment [9] and in experiment [10] was above 100 µM in each case.
With `CC(=O)OC1CC2C(C)(C)C(=O)C=C[C@]2(C)C2CCC3(C)C(=CCC3[C@H](CO)C[C@H](O)C(=O)C(C)(C)O)[C@]12C` (some centres undefined), the TGI was found to be 34.1 µM in experiment [1]; 50 µM in experiment [2]; 40.4 µM in experiment [3]; 28.1 µM in [5]; 83.3 µM in [6]; 64.2 µM in [8]. Further, the TGI in experiment [9] was 31.3 µM; in experiment [10] it was 86.2 µM.
As to `CCOc1c(Cc2ccccc2)c(=O)n2c3ccccc3n3c(=O)n(C)c(=O)c1c23`, the TGI in [1], in [2], in [3], in experiment [4], in experiment [5] and in [6] was above 100 µM each time. Moreover, the TGI in experiment [8], in experiment [9] and in experiment [10] was above 100 µM throughout.
`c1cc[c]([Sn]([O]c2cccc3cccnc23)([c]2ccccc2)[c]2ccccc2)cc1`: the GI50 in experiment [1] was 0.015 µM; in experiment [2], 0.0168 µM; in [3] it was 0.0139 µM; in experiment [4], 0.0172 µM; in experiment [5], 0.0311 µM; in [6], 0.0119 µM. For the same molecule, the GI50 is 0.0184 µM in experiment [8] and 0.0154 µM in [9]. The TGI in [1] was 0.029 µM; in experiment [2], 0.0332 µM; in experiment [3] it was 0.0285 µM; in experiment [4], 0.0575 µM; in [5] it was 0.095 µM; in [6] it was 0.0424 µM. Also, the TGI in experiment [8] worked out at 0.05 µM; in experiment [9], 0.0333 µM.
Regarding `COc1ccc(CN[C@H]2CCc3cc(OC)c(OC)c(OC)c3-c3ccc(SC)c(=O)cc32)c(OC)c1OC`, the GI50 is 0.0285 µM in [1]; 0.0428 µM in [2]; 0.0295 µM in experiment [4]; above 100 µM in experiment [6]; 0.0254 µM in experiment [8]; below 0.01 µM in experiment [10]. Besides, the TGI is above 100 µM in experiment [1]; above 100 µM in experiment [2]; 0.0938 µM in experiment [3]; 77.2 µM in experiment [4]; 0.03 µM in experiment [5]; above 100 µM in experiment [6]. Moreover, the TGI was found to be 31.5 µM in experiment [8] and 0.0497 µM in experiment [9].
For `CN(C)/C=C/C(=O)c1cccc(C(=O)/C=C/N(C)C)n1`, the TGI in experiment [1], in experiment [2], in experiment [3], in experiment [4], in experiment [5] and in [6] was above 100 µM each time. For the same molecule, the TGI in [8], in [9] and in [10] was above 100 µM throughout.
For the molecule `O=C(O)CSc1nnc(COc2ccccc2)n1-c1ccccc1`, the TGI in [1], in experiment [2], in experiment [3], in experiment [4], in experiment [5] and in experiment [6] was above 100 µM each time. The TGI in experiment [8] and in experiment [10] was above 100 µM in each case.
Take `COC(=O)C1=C(c2cc(OC)c(OC)c(OC)c2)OC(c2cc(OC)c(OC)c(OC)c2)C1` (centres undefined): the TGI in experiment [1] is 70.8 µM; in experiment [2], 65.4 µM; in experiment [3] it was above 100 µM; in experiment [4], 36.5 µM; in experiment [5] it was 58.5 µM; in [6] it was above 100 µM. In addition, the TGI in experiment [8] is 96.6 µM; in [9], 75.2 µM; in experiment [10], 60 µM.
